# Laboratory results as given in ChEMBL document CHEMBL1201862, “PubChem BioAssay data set” (2004).
#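 48-hour exposure; five concentrations; linearly interpolated endpoints. Abbreviation: GI50, concentration required for 50% inhibition of growth.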 Calls of active or inactive are those of the source. No stated cut-off is given here; in the data, active = GI50 up to about 1.1 µM and inactive = higher.
# How the values were obtained:
# Assay in all cases: inhibition of tumour cell growth, NCI panel, 48 h
# HL-60 = system: HL-60
# RXF 393 = system: RXF 393
# PC-3 = system: PC-3
# CAKI-1 = system: CAKI-1
# NCI-H226 = system: NCI-H226
# SNB-19 = system: SNB-19
# HCT-15 = system: HCT-15
# SF-268 = system: SF-268
# SF-295 = system: SF-295
# UACC-62 = system: UACC-62
# OVCAR-8 = system: OVCAR-8
# TK-10 = system: TK-10
# OVCAR-5 = system: OVCAR-5
# SK-MEL-2 = system: SK-MEL-2
# SR = system: SR
# LXFL 529 = system: LXFL 529
# A498 = system: A498
# DMS-273 = system: DMS-273
# DLD-1 = system: DLD-1
# XF498 = system: XF498
Structure (SMILES),GI50 (HL-60),GI50 (RXF 393),GI50 (PC-3),GI50 (CAKI-1),GI50 (NCI-H226),GI50 (SNB-19),GI50 (HCT-15) [µM],GI50 (SF-268),GI50 (SF-295),GI50 (UACC-62),GI50 (OVCAR-8),GI50 (TK-10),GI50 (OVCAR-5),GI50 (SK-MEL-2),GI50 (SR),GI50 (LXFL 529),GI50 (A498),GI50 (DMS-273),GI50 (DLD-1),GI50 (XF498)
COC(=O)C1=C(OC(=O)/C(=C/c2ccc(Cl)cc2)c2ccc(Cl)cc2)C(C(=O)OC)[C@]2(O)[C@@H](C(=O)OC)[C@H]1C[C@@H](c1ccccc1)[C@@H]2C(=O)OC (some centres not stated),> 100 µM (inactive),> 100 µM (inactive),62.5 µM (inactive),> 100 µM (inactive),> 100 µM (inactive),59 µM (inactive),> 100,> 100 µM (inactive),29.6 µM (inactive),> 100 µM (inactive),> 100 µM (inactive),> 100 µM (inactive),> 100 µM (inactive),> 100 µM (inactive),–,–,–,–,–,–
C/C=C/c1cc(=O)c([C@@H]2OC(=O)c3cc(OC)cc(OC)c32)co1 [VERMISTATIN],27.4 µM (inactive),42.2 µM (inactive),–,42.1 µM (inactive),60.4 µM (inactive),> 100 µM (inactive),–,43.5 µM (inactive),39.5 µM (inactive),25.9 µM (inactive),46.8 µM (inactive),57.5 µM (inactive),–,28.5 µM (inactive),27.6 µM (inactive),24.5 µM (inactive),–,–,–,–
O=C1C=CC[C@H]2O[C@@H](COC(=O)Cc3ccccc3)C[C@H]2O1,16.5 µM (inactive),–,35.2 µM (inactive),38.5 µM (inactive),35.4 µM (inactive),25.6 µM (inactive),18.4,25 µM (inactive),30.4 µM (inactive),41.9 µM (inactive),28.7 µM (inactive),25.9 µM (inactive),42.6 µM (inactive),51.5 µM (inactive),32 µM (inactive),–,> 100 µM (inactive),–,–,–
O=C1c2cccc3c2C(=O)c2c(cccc21)OCCOCCOCCOCCO3,74.5 µM (inactive),78.2 µM (inactive),–,96.4 µM (inactive),34.2 µM (inactive),> 100 µM (inactive),> 100,> 100 µM (inactive),> 100 µM (inactive),> 100 µM (inactive),> 100 µM (inactive),> 100 µM (inactive),> 100 µM (inactive),> 100 µM (inactive),14.2 µM (inactive),> 100 µM (inactive),–,> 100 µM (inactive),> 100 µM (inactive),–
CC1SC(c2ccccc2)N(Nc2c3ccccc3nc3ccccc23)C1=O (configuration not stated),–,–,–,46.9 µM (inactive),55.3 µM (inactive),> 100 µM (inactive),51.8,> 100 µM (inactive),69 µM (inactive),89.5 µM (inactive),74.1 µM (inactive),–,78.7 µM (inactive),> 100 µM (inactive),42.6 µM (inactive),43.3 µM (inactive),–,> 100 µM (inactive),59.2 µM (inactive),> 100 µM (inactive)
CC(C)=CCc1c(O)ccc2c1OC1c3ccc(O)c(CC=C(C)C)c3OCC21 (configuration not stated),4.32 µM (inactive),8.09 µM (inactive),–,9.02 µM (inactive),14 µM (inactive),13.6 µM (inactive),3.96,11.2 µM (inactive),11.6 µM (inactive),5.64 µM (inactive),8.22 µM (inactive),–,13.9 µM (inactive),18 µM (inactive),–,–,11.9 µM (inactive),6.4 µM (inactive),5.19 µM (inactive),17.8 µM (inactive)
CCCCN1C=CN2c3nc4cc(C)c(C)cc4n3C(C(=O)OC)=C(C(=O)OC)C12 (configuration not stated),> 100 µM (inactive),> 100 µM (inactive),–,> 100 µM (inactive),–,> 100 µM (inactive),> 100,> 100 µM (inactive),> 100 µM (inactive),> 100 µM (inactive),> 100 µM (inactive),> 100 µM (inactive),> 100 µM (inactive),> 100 µM (inactive),> 100 µM (inactive),> 100 µM (inactive),–,> 100 µM (inactive),> 100 µM (inactive),> 100 µM (inactive)
CC12CCC3C(CCC4(O)C=CCCC34C=O)C1(O)CC(O)C2c1ccc(=O)oc1 (configuration not stated),0.0665 µM (active),< 0.05 µM (active),–,0.0578 µM (active),0.148 µM (active),0.127 µM (active),0.0658,< 0.05 µM (active),0.0551 µM (active),0.076 µM (active),0.0682 µM (active),–,0.191 µM (active),0.111 µM (active),–,–,0.054 µM (active),< 0.05 µM (active),0.0578 µM (active),0.0873 µM (active)
Cc1c(C2=NN=C(/N=N/c3c(O)cccc3O)/C2=C/c2ccccc2)c(=O)n(-c2ccccc2)n1C,> 100 µM (inactive),> 100 µM (inactive),–,> 100 µM (inactive),> 100 µM (inactive),> 100 µM (inactive),> 100,> 100 µM (inactive),> 100 µM (inactive),> 100 µM (inactive),> 100 µM (inactive),–,> 100 µM (inactive),> 100 µM (inactive),–,–,> 100 µM (inactive),> 100 µM (inactive),> 100 µM (inactive),> 100 µM (inactive)
O=C(O)CCC(NC(=O)c1ccc(Nc2cnc3cc(C(F)(F)F)ccc3n2)cc1)C(=O)O (configuration not stated),> 100 µM (inactive),> 100 µM (inactive),–,–,> 100 µM (inactive),> 81.5 µM (inactive),> 100,> 100 µM (inactive),> 100 µM (inactive),> 100 µM (inactive),> 100 µM (inactive),–,> 100 µM (inactive),> 100 µM (inactive),–,–,> 100 µM (inactive),> 100 µM (inactive),> 100 µM (inactive),> 100 µM (inactive)
COc1cc(/C=C(\C#N)C(N)=O)cc(Br)c1O,–,> 100 µM (inactive),–,> 100 µM (inactive),> 100 µM (inactive),> 100 µM (inactive),> 100,> 100 µM (inactive),> 100 µM (inactive),–,> 100 µM (inactive),–,> 100 µM (inactive),> 100 µM (inactive),–,–,–,> 100 µM (inactive),92 µM (inactive),23.2 µM (inactive)
